Measurements: PMC6222779, “Enzyme-Site Blocking Combined with Optimization of Molecular Docking for Efficient Discovery of Potential Tyrosinase Specific Inhibitors from Puerariae lobatae Radix” (Molecules : A Journal of Synthetic Chemistry and Natural …, 2018)
Like-named read-outs stand apart in the source and are kept apart here.

What was measured:
TYR [1] = biological target: T1, TYR (Agaricus bisporus, UniProt C7FF04); test: TYR inhibit assay (spectrophotometry, L-tyrosine substrate); format: biochemical; parameters: purchased Sigma-Aldrich
Protocol: TYR inhibition by PLR extract solution, selected compounds and Kojic acid was analyzed by spectrophotometry. The solution comprised 50 µL of the mixed ligand solution (the corresponding ligand standards were diluted 50-fold with PBS) incubated with 50 µL TYR solution (0.1 U/mL ) for 30 min at room temperature, followed by the addition of 100 µL L-tyrosine (0.4 mM) and incubation for another 30 min at 30 °C. Absorbance was measured in triplicate at 480 nm and inhibition ratios were calculated from the mean of the triplicate observations according to Equation (2):(2) Inhibitory Ratio (%) = Ab−Ae/Ab × 100%, where Ab and Ae represented the absorption of blank groups and experiment groups, respectively.
Target sequence in this assay (C7FF04 1-392): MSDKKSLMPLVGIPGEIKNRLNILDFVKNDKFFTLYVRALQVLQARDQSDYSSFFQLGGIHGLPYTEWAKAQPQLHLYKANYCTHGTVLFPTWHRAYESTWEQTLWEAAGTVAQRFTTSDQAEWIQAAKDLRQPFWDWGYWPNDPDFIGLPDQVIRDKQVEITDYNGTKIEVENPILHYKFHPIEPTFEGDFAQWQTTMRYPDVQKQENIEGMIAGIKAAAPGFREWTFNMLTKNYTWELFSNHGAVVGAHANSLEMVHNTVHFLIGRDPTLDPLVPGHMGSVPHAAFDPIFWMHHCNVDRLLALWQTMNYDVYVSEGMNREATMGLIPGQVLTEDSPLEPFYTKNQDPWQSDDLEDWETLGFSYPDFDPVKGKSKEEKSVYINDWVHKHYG

TYR [2] = biological target: T1, TYR; test: TYR-site blocking affinity ultrafiltration screening with HPLC; settings: specific ligand when (Ab − Ae)/Ab ≥ 50% and (Ac − Ae)/Ac ≥ 50%; TYR 0.1 mg/mL, 30 °C, 30 min, 5000× g; peaks of PLR extract
Target sequence in this assay (C7FF04 1-392 limits assumed): as the sequence (C7FF04 1-392) above
Protocol: PLR-extract solution (100 µL) mixed with 100 µL diluted TYR solution and incubated at the best UF parameters. The unbound compounds can pass through the ultrafiltration membrane into the filtrates (F1), whereas the enzyme-ligand complexes remained in the chamber. After washing the retained complexes twice with 200 µL PBS (pH 6.8) to remove the residual unbound compounds, 200 µL methanol (80% (v/v)) was added into chamber and ultrasonic for 15 min to disrupt the complexes and release the ligands. The mixture was then centrifuge at 5000× g for 15 min, the filtrates (F2) containing the selected compounds were passed through a 0.45 µm filter membrane prior to HPLC analysis. For blank groups, PBS (pH 6.8) containing 2% DMSO was used to incubate with the TYR solution, followed by performance of the protocol described here. All experiments were performed in triplicate.
The PLR extract solution was added to the reaction solution and the protocol described in Section 2.5 was followed prior to HPLC analysis. All experiments were performed in triplicate.

[3] = TYR inhibitory activity, L-tyrosine 0.4 mM, absorbance at 480 nm, triplicate, read-out: IC50 ± SD

Row | IC50 (TYR [1]; [3]) | Compound | IC50 (TYR [1]) | binding to TYR in ultrafiltration with kojic acid site blocking (TYR [2])
1 |  | O=c1c(-c2ccc(O)cc2)coc2cc(O[C@@H]3O[C@H](CO)[C@@H](O)[C@H](O)[C@H]3O)ccc12 [Daidzin, daidzin] | > 500 µM | potential specific TYR ligands
2 | > 500 µM | O=c1c(-c2ccc(O)cc2)coc2cc(O[C@@H]3O[C@H](CO)[C@@H](O)[C@H](O)[C@H]3O)cc(O)c12 [Genistin, genistin] |  | potential specific TYR ligands
3 | 12.7 ± 2.77 µM | O=c1c(-c2ccc(O)cc2)coc2c(C3OC(COC4OCC(O)(CO)C4O)C(O)C(O)C3O)c(O)ccc12 (stereo not shown) [Mirificin, mirificin] |  | potential specific TYR ligands
4 |  | O=c1c(-c2ccc(O)cc2)coc2c([C@@H]3O[C@H](CO)[C@@H](O)[C@H](O)[C@H]3O)c(O)ccc12 [Puerarin, puerarin] | 9.83 ± 1.45 µM | potential specific TYR ligands
5 |  | O=c1c(-c2ccc(O)cc2)coc2c(C3OC(COC4OCC(O)(CO)C4O)C(O)C(O)C3O)c(O)cc(O)c12 (stereo not shown) [compound 7, genistein-8-C-apiosyl(16)-glucoside] |  | not recognized as specific TYR inhibitors
6 |  | COc1ccc2c(c1)OC(=O)C=C(c1ccc(O)cc1)C(OC1OC(CO)C(O)C(O)C1O)C2 (stereo not shown) [compound 11, sophoroside A] |  | not recognized as specific TYR inhibitors
